Laboratory results as given in patent publication US9497966B2, “Pesticidal compositions and related methods” (DOW AGROSCIENCES LLC, priority 2013, dated 2016).

Columns and labels:
[1] = test system: Green Peach Aphid (Myzus persicae) (GPA) (MYZUPE); test: Bioassay for Green Peach Aphid, foliar spray on infested cabbage seedlings; format: in vivo; details: 72 h, 200 ppm foliar spray on cabbage, graded after three days, Abbott-corrected % control, read-out: % Control (or Mortality) rating, GPA
Experimental: Example A: Bioassays for Green Peach Aphid (Myzus persicae) (GPA) (MYZUPE)
Cabbage seedlings grown in 3-inch pots, with 2-3 small (3-5 cm) true leaves, were used as test substrate. The seedlings were infested with 20-50 GPA (wingless adult and nymph stages) one day prior to chemical application. Four pots with individual seedlings were used for each treatment. Test compounds (2 mg) were dissolved in 2 mL of acetonemethanol (1:1) solvent, forming stock solutions of 1000 ppm test compound. The stock solutions were diluted 5× with 0.025% Tween 20 in H2O to obtain the solution at 200 ppm test compound. A hand-held aspirator-type sprayer was used for spraying a solution to both sides of […] leaves until runoff. Reference plants (solvent check) were sprayed with the diluent only containing 20% by volume of acetonemethanol (1:1) solvent. Treated plants were held in a holding room for three days at approximately 25° C. and ambient relative humidity (RH) prior to grading. Evaluation was conducted by counting the number of live aphids per plant under a microscope. Percent control was measured by using Abbott's correction formula (W. S. Abbott, “A Method of Computing the Effectiveness of an Insecticide,” J. Econ. Entomol. 18 (1925), pp. 265-267) as follows. Corrected % Control=100*(X−Y)/X • where • X=No. of live aphids on solvent check plants and • Y=No. of live aphids on treated plants The results are indicated in the table entitled “TABLE 2. Biological Data for Green Peach Aphid (MYZUPE) and Sweetpotato Whitefly-crawler (WF) (BEMITA)” (See Table Section).

[2] = test system: Sweetpotato Whitefly-Crawler (Bemisia tabaci) (WF) (BEMITA); test: Insecticidal test for Sweetpotato Whitefly-Crawler in foliar spray assay on cotton plants; format: in vivo; details: 216 h, 200 ppm foliar spray on cotton, graded after 9 days, Abbott-corrected % control, read-out: % Control (or Mortality) rating, WF
Experimental: Example B: Insecticidal Test for Sweetpotato Whitefly-Crawler (Bemisia tabaci) (WF) (BEMITA) in Foliar Spray Assay
Cotton plants (Gossypium hirsutum) grown in 3-inch pots, with 1 small (4-5 cm) true leaves, were used as test substrate. The plants were infested with 200-400 whitefly eggs 4-5 days prior to chemical application. Four pots with individual plants were used for each treatment. Test compounds (2 mg) were dissolved in 1 mL of acetone solvent, forming stock solutions of 2000 ppm test compound. The stock solutions were diluted 10× with 0.025% Tween 20 in H2O (diluents) to obtain the solution at 200 ppm test compound. A hand-held aspirator-type sprayer was used for spraying a solution to both sides of cotton leaves until runoff. Reference plants (solvent check) were sprayed with the diluent only containing 10% by volume of acetone solvent. Treated plants were held in a holding room for 9 days at approximately 25° C. and ambient relative humidity (RH) prior to grading. Evaluation was conducted by counting the number of live 3-4 nymph stage per plant under a microscope. Percent control was measured by using Abbott's correction formula (W. S. Abbott, “A Method of Computing the Effectiveness of an Insecticide,” J. Econ. Entomol. 18 (1925), pp. 265-267) as follows. Corrected % Control=100*(X−Y)/X • where • X=No. of live nymphs on solvent check plants and • Y=No. of live nymphs on treated plants.
Biological Data for Green Peach Aphid (MYZUPE) and Sweetpotato Whitefly-crawler (WF) (BEMITA)” (See Table Section).

Structure (SMILES)	mortality at 200 ppm [1] [%]	mortality at 200 ppm [2] [%]
C#CCN(C(=O)C(CSC(c1ccccc1)(c1ccccc1)c1ccccc1)=NOCC)c1cn(-c2cccnc2)nc1Cl [Compound F1, N-(3-chloro-1-(pyridin-3-yl)-1H-pyrazol-4-yl)-2-(ethoxyimino)-N-(prop-2-yn-1-yl)-3-(tritylthio)propanamide]	< 0	0 to 80
C#CCN(C(=O)C(CSCC1CC1(F)F)=NOC)c1cn(-c2cccnc2)nc1Cl (centres unmarked) [Compound F2, N-(3-Chloro-1-(pyridin-3-yl)-1H-pyrazol-4-yl)-3-(((2,2-difluorocyclopropyl)methyl)thio)-2-(methoxyimino)-N-(prop-2-yn-1-yl)propanamide]	80 to 100	80 to 100
CCN(C(=O)C(CS(=O)(=O)CC1CC1(F)F)=NOC)c1cn(-c2cccnc2)nc1Cl (centres unmarked) [Compound F3]	80 to 100	80 to 100
C#CCN(C(=O)C(CSC(c1ccccc1)(c1ccccc1)c1ccccc1)=NOC)c1cn(-c2cccnc2)nc1Cl [Compound F4, N-(3-chloro-1-(pyridin-3-yl)-1H-pyrazol-4-yl)-2-(methoxyimino)-N-(prop-2-yn-1-yl)-3-(tritylthio)propanamide]	< 0	0 to 80
CCN(C(=O)C(CSCC1CC1(F)F)=NOC)c1cn(-c2cccnc2)nc1Cl (centres unmarked) [Compound F5]	80 to 100	80 to 100
C#CCN(C(=O)C(CSCC(F)(F)F)=NOC)c1cn(-c2cccnc2)nc1Cl [Compound F6, N-(3-Chloro-1-(pyridin-3-yl)-1H-pyrazol-4-yl)-2-(methoxyimino)-N-(prop-2-yn-1-yl)-3-((2,2,2-trifluoroethyl)thio)propanamide]	80 to 100	80 to 100
C#CCN(C(=O)C(CS)=NOCC)c1cn(-c2cccnc2)nc1Cl [Compound F7, N-(3-Chloro-1-(pyridin-3-yl)-1H-pyrazol-4-yl)-2-(ethoxyimino)-3-mercapto-N-(prop-2-yn-1-yl)propanamide]	80 to 100	< 0
CCN(C(=O)C(CS(=O)(=O)CCC(F)(F)F)=NOC)c1cn(-c2cccnc2)nc1Cl [Compound F8, N-(3-Chloro-1-(pyridin-3-yl)-1H-pyrazol-4-yl)-N-ethyl-2-(methoxyimino)-3-((3,3,3-trifluoropropyl)sulfonyl)propanamide]	80 to 100	80 to 100
CCN(C(=O)C(CS)=NOC)c1cn(-c2cccnc2)nc1Cl [Compound F9, N-(3-Chloro-1-(pyridin-3-yl)-1H-pyrazol-4-yl)-N-ethyl-3-mercapto-2-(methoxyimino)propanamide]	80 to 100	0 to 80
CCON=C(CSCC1CC1(F)F)C(=O)N(CC)c1cn(-c2cccnc2)nc1Cl (centres unmarked) [Compound F11, N-(3-Chloro-1-(pyridin-3-yl)-1H-pyrazol-4-yl)-3-(((2,2-difluorocyclopropyl)methyl)thio)-2-(ethoxyimino)-N-ethylpropanamide]	80 to 100	80 to 100
CCON=C(CSC(c1ccccc1)(c1ccccc1)c1ccccc1)C(=O)N(CC)c1cn(-c2cccnc2)nc1Cl [Compound F12, N-(3-chloro-1-(pyridin-3-yl)-1H-pyrazol-4-yl)-2-(ethoxyimino)-N-ethyl-3-(tritylthio)propanamide]	0 to 80	80 to 100
C=CCON=C(CSC(c1ccccc1)(c1ccccc1)c1ccccc1)C(=O)N(CC)c1cn(-c2cccnc2)nc1Cl [Compound F13, 2-((Allyloxy)imino)-N-(3-chloro-1-(pyridin-3-yl)-1H-pyrazol-4-yl)-N-ethyl-3-(tritylthio)propanamide]	0 to 80	0 to 80
CCN(C(=O)C(CSCCC(F)(F)F)=NOC)c1cn(-c2cccnc2)nc1Cl [Compound F14, N-(3-chloro-1-(pyridin-3-yl)-1H-pyrazol-4-yl)-N-ethyl-2-(methoxyimino)-3-((3,3,3-trifluoropropyl)thio)propanamide]	80 to 100	80 to 100
CCON=C(CSCCCC(F)(F)F)C(=O)N(CC)c1cn(-c2cccnc2)nc1Cl [Compound F15, N-(3-Chloro-1-(pyridin-3-yl)-1H-pyrazol-4-yl)-2-(ethoxyimino)-N-ethyl-3-((4,4,4-trifluorobutyl)thio)propanamide]	80 to 100	80 to 100
C#CCN(C(=O)C(CSCCC(F)(F)F)=NOCC)c1cn(-c2cccnc2)nc1Cl [Compound F16, N-(3-Chloro-1-(pyridin-3-yl)-1H-pyrazol-4-yl)-2-(ethoxyimino)-N-(prop-2-yn-1-yl)-3-((3,3,3-trifluoropropyl)thio)propanamide]	80 to 100	80 to 100
CCON=C(CSCC(F)(F)F)C(=O)N(CC)c1cn(-c2cccnc2)nc1Cl [Compound F17, N-(3-Chloro-1-(pyridin-3-yl)-1H-pyrazol-4-yl)-2-(ethoxyimino)-N-ethyl-3-((2,2,2-trifluoroethyl)thio)propanamide]	80 to 100	80 to 100
CCN(C(=O)C(C[S+]([O-])CCC(F)(F)F)=NOC)c1cn(-c2cccnc2)nc1Cl (centres unmarked) [Compound F18, N-(3-Chloro-1-(pyridin-3-yl)-1H-pyrazol-4-yl)-N-ethyl-2-(methoxyimino)-3-((3,3,3-trifluoropropyl)sulfinyl)propanamide]	80 to 100	80 to 100
C#CCN(C(=O)C(CSCCCC(F)(F)F)=NOC)c1cn(-c2cccnc2)nc1Cl [Compound F19, N-(3-Chloro-1-(pyridin-3-yl)-1H-pyrazol-4-yl)-2-(methoxyimino)-N-(prop-2-yn-1-yl)-3-((4,4,4-trifluorobutyl)thio)propanamide]	80 to 100	80 to 100
CCON=C(CS)C(=O)N(CC)c1cn(-c2cccnc2)nc1Cl [Compound F20, N-(3-chloro-1-(pyridin-3-yl)-1H-pyrazol-4-yl)-2-(ethoxyimino)-N-ethyl-3-mercaptopropanamide]	80 to 100	0 to 80
C#CCN(C(=O)C(CSCCC(F)(F)F)=NOC)c1cn(-c2cccnc2)nc1Cl [Compound F21, N-(3-Chloro-1-(pyridin-3-yl)-1H-pyrazol-4-yl)-2-(methoxyimino)-N-(prop-2-yn-1-yl)-3-((3,3,3-trifluoropropyl)thio)propanamide]	80 to 100	80 to 100
CCN(C(=O)C(C[S+]([O-])CC1CC1(F)F)=NOC)c1cn(-c2cccnc2)nc1Cl (centres unmarked) [Compound F22]	80 to 100	80 to 100
C#CCN(C(=O)C(CS)=NOC)c1cn(-c2cccnc2)nc1Cl [Compound F23, N-(3-Chloro-1-(pyridin-3-yl)-1H-pyrazol-4-yl)-3-mercapto-2-(methoxyimino)-N-(prop-2-yn-1-yl)propanamide]	0 to 80	0 to 80
CCON=C(CSCCC(F)(F)F)C(=O)N(CC)c1cn(-c2cccnc2)nc1Cl [Compound F24, N-(3-chloro-1-(pyridin-3-yl)-1H-pyrazol-4-yl)-2-(ethoxyimino)-N-ethyl-3-((3,3,3-trifluoropropyl)thio)propanamide]	80 to 100	80 to 100
CON=C(CSCCC(F)(F)F)C(=O)N(C)c1cn(-c2cccnc2)nc1Cl [Compound P4, N-(3-chloro-1-(pyridin-3-yl)-1H-pyrazol-4-yl)-2-(methoxyimino)-N-methyl-3-((3,3,3-trifluoropropyl)thio)propanamide]	80 to 100	80 to 100
CON=C(C[S+]([O-])CCC(F)(F)F)C(=O)N(C)c1cn(-c2cccnc2)nc1Cl (centres unmarked) [Compound P5, N-(3-chloro-1-(pyridin-3-yl)-1H-pyrazol-4-yl)-2-(methoxyimino)-N-methyl-3-((3,3,3-trifluoropropyl)sulfinyl)propanamide]	80 to 100	80 to 100
